In patent publication US20250262209A1, “TREATMENT OF GASTROINTESTINAL DISEASES” (Aclipse Two, Inc., priority 2022, published 2025):

Columns and labels:
Format in all cases: cell-based, human
[1] = system: monocytes from PBMC, M1-to-M2 macrophage repolarization; experiment: M1-to-M2 macrophage repolarization assay; settings: cytokine analysis (MSD), day 14 supernatant
Excerpt: The purpose of this study was to evaluate the effects of lobeglitazone and other thiazolidinediones on M1-to-M2 macrophage repolarization. The test articles and vehicles used in this study were lobeglitazone sulfate, pioglitazone HCl, and rosiglitazone.
M1-to-M2 macrophage repolarization assay timeline were as follows in Table 13.
Drug concentrations tested in the M1 differentiation assay are as in Table 14.
• (1) Isolate monocytes from PBMC using StemCell® monocyte isolation kit. • (2) Count cell and adjust the cell density to 0.5×10^6 cells/ml with fresh complete differentiation medium (add 10 μl M-CSF stock (100 μg/ml) 10 ml cell mixture to a final concentration of 50 ng/ml). • (3) Seed isolated monocyte 100 μL per well on 96-well plate. • (4) On day 4, add additional 100 μl medium containing M-CSF • (5) On day 6, add stimulator at 5× final concentration (200 μL medium in each well) to a final concentration of 50 ng/ml. • (6) On day 8, remove medium and replenish with 200 μL cytokine free medium, then add test compound (final concentration in μM) and incubate for 4 days. • (7) On day 12, add IL-4 and incubate for 2 days (add 50 μL of 100 ng/ml IL-4 to each well containing 200 μL medium to reach 20 ng/ml). • (8) On day 14, spin down the plates at 300×g for 5 min and collect the supernatant for cytokine quantification. • (9) M1 and M2 associated macrophage cytokines of interest are as follows in Table 15.
The cells are then collected for flow analysis of viability/CD11c/CD163/CD206.
Cell surface marker CD163, CD11c, and CD206 were applied to characterize M2 repolarization via flow cytometry. Controls included No stain and staining with all surface marker antibodies to confirm the optimization of gating strategy.

[2] = system: monocytes from PBMC differentiated into M2 macrophage; experiment: M2 macrophage differentiation assay; settings: CD163, CD11c, CD206; donor 1 and 2
Excerpt: The purpose of this study was to evaluate the effects of lobeglitazone and other thiazolidinediones on M2 macrophage differentiation. The test articles and vehicles used in this study were lobeglitazone sulfate, pioglitazone HCl, and rosiglitazone.
M2 macrophage differentiation assay timeline was as follows in Table 10.
• (1) Isolate monocytes from PBMC using StemCell® monocyte isolation kit • (2) Count cell and adjust the cell density to 0.5×10^6 cells/ml with fresh complete differentiation medium. Add 5 μL M-CSF stock ([…]) to each 5 ml cell mixture. • (3) Seed isolated monocyte 100 μL per well on 96-well plate. • (4) Add test articles as the plate map using D300e (final concentration in μM). • (5) Differentiate the monocyte to macrophage in the presence of M-CSF to […] for 4 days. • (6) On day 4, add additional medium containing M-CSF. • (7) Add test compounds using D300e (final volume=[…]). • (8) On day 6, add IL-4 at 5× final concentration (IL-4 stock 0.1 mg/ml: dilute 10 μl stock into 10 ml medium for 100 ng/ml. Add 50 μl 100 ng/ml IL-4 to each well containing 200 μL medium to reach 20 ng/ml). • (9) On day 8, spin down the plates at 300×g for 5 min and collect the supernatant for cytokine quantification using MSD. • (10) M2 associated macrophage cytokines of interest are listed below in Table 12.
• (11) Collect cells for flow analysis of viability/CD11c/CD163/CD206.
Flow cytometry and surface marker CD163, CD11c, and CD206 were applied to characterize M2 repolarization. No stain and all stain with surface marker antibody to confirm the optimization of gating strategy.

[3] = system: monocytes differentiated to M1 macrophage; experiment: M1 macrophage differentiation assay; settings: TNF-α, IL-1b, IL-6, IL-12, IL-23 in supernatant on day 7 (MSD); concentrations of Table 9
Excerpt: The purpose of this study was to evaluate the effects of lobeglitazone and other thiazolidinediones on M1 macrophage differentiation. The test articles and vehicles used in this study were lobeglitazone sulfate, pioglitazone HCl, and rosiglitazone.
M1 macrophage differentiation assay timeline was as follows in Table 8.
Drug concentrations tested in the M1 differentiation assay are as in Table 9.
• (1) Revive frozen monocytes. • (2) Count cells and adjust the cell density to 0.5×10^6 cells/ml with fresh complete differentiation medium (RPMI1640+10% FBS+1% PS plus GM-CSF or M-CSF at 50 ng/ml). • (3) Seed isolated monocyte 100 μL per well on 96-well plate. • (4) Add test articles as the plate map using D300e (final concentration in μM). • (5) Differentiate the monocyte to macrophage in the presence of GM-CSF to M1, or M-CSF to M2 for 5 days. • (6) On day 5, add cytokines at 2× final concentration. • (6a) Prepare medium containing GM-CSF for M1 and M-CSF for M2. • (6b) Add corresponding activator to reach 2× final working concentration: (i) IFNγ stock 0.2 mg/ml: add 2.5 μL stock into 5 ml complete differentiation medium for 100 ng/ml; (ii) LPS stock 1.0 mg/ml: dilute to 20 μg/ml by mixing 2 μL stock into 100 μl medium; then add 10 μl 20 μg/ml LPS to 5 ml complete differentiation medium for 40 ng/ml; (iii) IL-4 stock 0.1 mg/ml: dilute 2 μL stock into 5 ml complete differentiation medium for 40 ng/ml. • (6c) Add 100 μL cytokine containing differentiating medium to each well, and total volume of each well is 200 μL. • (6d) Add test compound again using D300e. Make sure to set the final volume as 200 μL. • (7) Incubate cytokine and test compound for 48 hours. • (8) On day 7, spin down the plates at 300×g for 5 min and collect the supernatant for cytokine quantification using MSD. • (9) M1 associated macrophage cytokines TNF-α, IL-1b, IL-6, IL-12, and IL-23 were quantified.

| SMILES | concentration showing remarkable promotion of MDC expression [1] | concentration at which M2 repolarization was promoted (M2 macrophage surface markers, flow cytometry) [2] | M1 macrophage cytokines expression [3] |
| --- | --- | --- | --- |
| CN(CCOc1ccc(CC2SC(=O)NC2=O)cc1)c1ccccn1 (racemic) [rosiglitazone, (RS)-5-[4-(2-[methyl(pyridin-2-yl)amino]ethoxy)benzyl]thiazolidine-2,4-dione] | 6.4 µM | ~0.4 µM | promoted the M1 macrophage cytokines in a dose-dependent manner |
| CCc1ccc(CCOc2ccc(CC3SC(=O)NC3=O)cc2)nc1.Cl (racemic) [pioglitazone, (±)-5-[p-[2-(5-Ethyl-2-pyridyl)ethoxy]benzyl]-2,4-thiazolidinedione monohydrochloride] | 5 µM | ~10 µM | promoted the M1 macrophage cytokines in a dose-dependent manner |
